Assay results: PMC4457452 (2013)

How the values were obtained:
[1] = test system: AATT hairpin duplex (DNA, hairpin) CGAATTCGTTTTCGAATTCG; test: SPR steady state; conditions: 50 mM KCl, 10 mM HEPES, 3 mM EDTA, pH 7.3
[2] = test system: Tel22 (DNA, G4) AGGGTTAGGGTTAGGGTTAGGG; test: UV thermal melting, 295 nm; conditions: 50 mM KCl, 10 mM TRIS, 3 mM EDTA, pH 7.3
[3] = test system: AATT hairpin duplex (DNA, hairpin) CGAATTCGTTTTCGAATTCG; test: UV thermal melting, 260 nm; conditions: 50 mM KCl, 10 mM TRIS, 3 mM EDTA, pH 7.3
[4] = test system: MYC22 (DNA, G4) TGAGGGTGGGGAGGGTGGGGAA; test: 1H NMR imino proton titration; conditions: 20 mM potassium phosphate; pH 6.02, 35 °C, 100 µM; 3'-end tetrad first, then 5'-end tetrad
[5] = test system: Tel22 (DNA, G4) AGGGTTAGGGTTAGGGTTAGGG; test: SPR steady state, two-site fit; conditions: 50 mM KCl; 10 mM HEPES, 3 mM EDTA, pH 7.3; site 1 of 2
[6] = test system: cMYC19 (DNA, G4) AGGGTGGGGAGGGTGGGGA; test: SPR steady state, two-site fit; conditions: 50 mM KCl; 10 mM HEPES, 3 mM EDTA, pH 7.3; site 1 of 2
[7] = test system: Tel22 (DNA, G4) AGGGTTAGGGTTAGGGTTAGGG; test: SPR; conditions: 50 mM KCl; 10 mM HEPES, 3 mM EDTA, pH 7.3; ligand range 10 nM–10 µM
[8] = test system: cMYC19 (DNA, G4) AGGGTGGGGAGGGTGGGGA; test: SPR; conditions: 50 mM KCl; 10 mM HEPES, 3 mM EDTA, pH 7.3; ligand range 10 nM–10 µM
[9] = test system: AATT hairpin duplex (DNA, hairpin) CGAATTCGTTTTCGAATTCG; test: SPR; conditions: 50 mM KCl; 10 mM HEPES, 3 mM EDTA, pH 7.3; ligand range 10 nM–10 µM

Row | Structure (SMILES) | K1 [5] | K1 [6] | K1 [1] | ∆Tm ([3]; drug:DNA 6:1) | ∆Tm ([2]; drug:DNA 6:1) | other results
1 | CC1(C)C(/C=C/C=C2/N(CCC[N+](C)(C)C)c3ccc(C(=O)O)cc3C2(C)C)=[N+](CCC[N+](C)(C)C)c2ccc(C(=O)O)cc21 | 830000 M⁻¹ | 5e+06 M⁻¹ | < 10^5 M^−1 | 3 °C |  | 
2 | CC1(C)C(/C=C/C=C2/N(CCC[N+](C)(C)C)c3ccc(Cl)cc3C2(C)C)=[N+](CCC[N+](C)(C)C)c2ccc(Cl)cc21 | 2.7e+06 M⁻¹ | 8.4e+06 M⁻¹ | < 10^5 M^−1 |  | 19 °C | 
3 | CC1(C)C(/C=C/C=C2/N(CCC[N+](C)(C)C)c3ccc(I)cc3C2(C)C)=[N+](CCC[N+](C)(C)C)c2ccc(I)cc21 | 2.1e+06 M⁻¹ | 7.8e+06 M⁻¹ | < 10^5 M^−1 | 3 °C | 21 °C | 
4 | CC1(C)C(/C=C/C=C2/N(CCCc3ccccc3)c3ccccc3C2(C)C)=[N+](CCCc2ccccc2)c2ccccc21 | 130000 M⁻¹ | 1.2e+06 M⁻¹ | < 10^5 M^−1 |  | 11 °C | 

Continued, in another order:

Row | K1 [5] | K1 [6] | K1 [1] | ∆Tm ([3]; drug:DNA 6:1) | ∆Tm ([2]; drug:DNA 6:1) | Structure (SMILES) | other results
5 | 5.5e+06 M⁻¹ | 1.2e+07 M⁻¹ |  |  |  | CC1(C)C(/C=C/C=C2/N(CCC[N+](C)(C)C)c3ccc(Br)cc3C2(C)C)=[N+](CCC[N+](C)(C)C)c2ccc(Br)cc21 | K1 ([1]; up to 1 µM): < 10^5 M^−1; ∆Tm ([2]; drug:DNA 6:1, DNA 3 µM): 24 °C; ∆Tm ([3]; drug:DNA 6:1, DNA 3 µM): 0 °C; binding [4]: yes
6 | 5.9e+06 M⁻¹ | 6.3e+06 M⁻¹ | < 10^5 M^−1 |  |  | CC1(C)C(/C=C/C=C2/N(CCC[N+](C)(C)C)c3ccc(F)cc3C2(C)C)=[N+](CCC[N+](C)(C)C)c2ccc(F)cc21 | 
7 | 820000 M⁻¹ | 570000 M⁻¹ | < 10^5 M^−1 |  | 1 °C | CC1(C)C(/C=C/C=C2/N(CCC[N+](C)(C)C)c3ccc(S(=O)(=O)O)cc3C2(C)C)=[N+](CCC[N+](C)(C)C)c2ccc(S(=O)(=O)O)cc21 | 
8 | 390000 M⁻¹ | 3.8e+06 M⁻¹ |  | 2 °C | 14 °C | CC1(C)C(/C=C/C=C2/N(CCC[N+](C)(C)C)c3ccccc3C2(C)C)=[N+](CCC[N+](C)(C)C)c2ccccc21 | K1 ([1]; up to 10 µM): < 10^5 M^−1; binding [4]: yes
9 |  |  |  |  | 0 °C | CCCCN1/C(=C/C=C/C2=[N+](CCCC)c3ccccc3C2(C)C)C(C)(C)c2ccccc21 | binding [7]: no; binding [8]: no; binding [9]: no
